In experiment [1] the target is T1, LIF-LIFR interaction (recombinant human LIFR His-Tag / biotinylated LIF) (Homo sapiens, UniProt P42702).
T1 construct: purchased Sino Biological (LIFR); R&D Systems (LIF)
T1 sequence (P42702 45-833 limits assumed): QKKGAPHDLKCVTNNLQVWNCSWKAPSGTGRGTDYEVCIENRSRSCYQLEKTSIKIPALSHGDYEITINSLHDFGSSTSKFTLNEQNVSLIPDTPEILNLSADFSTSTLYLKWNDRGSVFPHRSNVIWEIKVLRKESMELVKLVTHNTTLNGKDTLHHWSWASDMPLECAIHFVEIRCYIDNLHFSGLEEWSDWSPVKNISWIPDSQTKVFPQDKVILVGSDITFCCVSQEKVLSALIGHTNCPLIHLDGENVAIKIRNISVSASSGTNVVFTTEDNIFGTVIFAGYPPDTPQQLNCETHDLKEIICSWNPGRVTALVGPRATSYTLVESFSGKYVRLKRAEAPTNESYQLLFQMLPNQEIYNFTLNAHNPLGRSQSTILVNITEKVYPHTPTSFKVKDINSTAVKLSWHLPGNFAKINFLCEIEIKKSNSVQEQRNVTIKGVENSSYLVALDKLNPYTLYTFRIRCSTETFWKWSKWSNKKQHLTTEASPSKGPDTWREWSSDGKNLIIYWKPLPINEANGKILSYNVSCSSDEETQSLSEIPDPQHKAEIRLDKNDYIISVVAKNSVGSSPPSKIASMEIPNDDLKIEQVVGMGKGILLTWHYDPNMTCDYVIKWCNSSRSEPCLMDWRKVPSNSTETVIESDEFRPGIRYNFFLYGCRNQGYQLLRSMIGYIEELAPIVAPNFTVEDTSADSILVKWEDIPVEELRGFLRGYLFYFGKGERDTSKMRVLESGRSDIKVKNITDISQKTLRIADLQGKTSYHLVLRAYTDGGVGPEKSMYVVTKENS
In words: Cell-free AlphaScreen assay of LIF-LIFR interaction. Format: binding. The following applies: for inhibition at 10 µM: read-out: % LIFR inhibition (10 μM); for inhibition at 50 µM: read-out: % LIFR inhibition (50 μM). Here is the method:
Recombinant human LIFR (His-Tag) and LIF (biotinylated) were purchased from Sino Biologicals (Sino Biological Europe GmbH, Dusseldorf, Germany) and R&D Systems (Abingdon, UK), respectively, and both were reconstituted as required by the manufacturer. Inhibition of LIFR/LIF binding was measured by AlphaScreen, in white, low-volume, 384-well AlphaPlates (PerkinElmer, Waltham, MA, USA) using a final volume of 15 μL and an assay buffer containing 25 mM Hepes (pH 7.4), 100 mM NaCl, and 0.005% Kathon. The concentration of DMSO in each well was maintained at 5% v/v. […] Then, streptavidin donor beads were added (final concentration 20 ng/μL), and the plate was incubated in the dark for 2 h and then read in an EnSpire Alpha multimode plate reader (PerkinElmer, Waltham, MA, USA). […] Each concentration was tested in triplicate (N = 3). When present, outliers were removed, resulting in N = 2. Data, reported as averaged intensity values ± standard deviation and N, were exploited to fit the curves through GraphPad Prism 8.

The next experiment concerns the target T2, LIFR (Homo sapiens, UniProt P42702).
T2 construct: expressed in transfected cells; host or cells: HepG2
T2 sequence (P42702 45-1097): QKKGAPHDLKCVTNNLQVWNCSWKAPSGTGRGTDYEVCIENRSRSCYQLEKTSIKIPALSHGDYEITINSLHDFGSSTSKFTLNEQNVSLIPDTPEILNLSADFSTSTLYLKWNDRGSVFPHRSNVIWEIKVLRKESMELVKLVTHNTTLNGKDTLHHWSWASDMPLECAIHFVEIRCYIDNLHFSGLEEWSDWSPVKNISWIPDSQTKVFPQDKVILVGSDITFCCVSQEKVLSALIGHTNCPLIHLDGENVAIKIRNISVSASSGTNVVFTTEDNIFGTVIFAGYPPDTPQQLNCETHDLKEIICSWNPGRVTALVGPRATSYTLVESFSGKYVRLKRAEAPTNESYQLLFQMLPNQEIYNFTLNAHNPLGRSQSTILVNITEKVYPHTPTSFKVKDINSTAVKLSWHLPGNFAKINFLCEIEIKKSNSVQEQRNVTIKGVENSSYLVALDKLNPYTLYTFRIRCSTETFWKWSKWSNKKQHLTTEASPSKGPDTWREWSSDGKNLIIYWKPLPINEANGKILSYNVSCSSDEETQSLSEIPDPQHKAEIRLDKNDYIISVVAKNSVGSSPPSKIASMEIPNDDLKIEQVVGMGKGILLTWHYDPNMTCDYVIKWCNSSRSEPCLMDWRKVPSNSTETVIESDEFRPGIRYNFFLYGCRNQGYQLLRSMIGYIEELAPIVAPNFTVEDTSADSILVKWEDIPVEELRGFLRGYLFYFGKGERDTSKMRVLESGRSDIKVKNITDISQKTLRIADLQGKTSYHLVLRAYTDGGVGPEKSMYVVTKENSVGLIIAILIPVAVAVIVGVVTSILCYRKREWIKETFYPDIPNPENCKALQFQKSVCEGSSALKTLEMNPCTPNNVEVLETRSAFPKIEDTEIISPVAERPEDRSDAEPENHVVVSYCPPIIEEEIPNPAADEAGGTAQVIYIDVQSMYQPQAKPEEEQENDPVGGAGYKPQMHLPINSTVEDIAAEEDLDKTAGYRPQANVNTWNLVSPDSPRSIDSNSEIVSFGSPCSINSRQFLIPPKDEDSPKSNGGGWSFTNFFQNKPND
Put plainly: Luciferase reporter (transactivation) assay on HepG2 cells transfected with LIFR. Format: cell-based. Conditions: relative to LIF as 100%, mean ± SD. How it is done:
(§1) Hek293T cells, obtained from ATCC (Manassas, VA, USA), were cultured in a D-MEM medium (Sigma-Merk Life Science S.r.l., Milan, Italy) enriched with 10% fetal bovine serum, 1% L-glutamine, and 1% penicillin/streptomycin. HEPG2 cells, also from ATCC, were grown in an MEM medium (Euroclone, reference ECB2071L) supplemented with 10% fetal bovine serum (Euroclone, reference ECS5000L), 1% L-glutamine (Euroclone, reference ECB3000D), and 1% penicillin/streptomycin (Euroclone, reference ECB3001D). All cultures were maintained in a humidified environment with 5% CO2 at 37 °C. Additionally, it was confirmed that the cells were free from Mycoplasma contamination, as verified using the Mycoplasma PCR Detection Kit (Aurogene, reference G238).
(§2) The luciferase reporter gene assay protocol takes place over four days. On the first day, HEPG2 or HEK293T cells are seeded in a 24-well plate at a density of 7.5 × 10^4 cells/well for HEPG2 or 2.5 × 10^4 cells/well for HEK293T. On the second day, cells are transiently transfected, preparing a separate mix for each receptor. To assess the phosphorylation of STAT3 signaling, HEPG2 cells were transfected with 200 ng of the reporter vector containing the Pgl4.47 response element, along with 100 ng each of LIFR, IL6ST (gp130), and pGL4.70 (Promega, Madison, WI), a vector encoding the human Renilla gene. The following day, the cells were stimulated with 10 ng/mL LIF, either alone or in combination with 2o at concentrations of 0.1, 1, 10, 25, and 50 μM, to generate a dose–response curve. For GPBAR1 agonism, HEK293T cells were transfected with 200 ng of the reporter vector pG29-CRE-LUC, 150 ng of pcmvsport-hTGR5, and 150 ng of pGL4.70, the human Renilla gene. The following day, cells were stimulated with 10 μM TLCA alone as a positive control and compound 2o at concentrations of 1 and 10 nM, as well as 0.1, 1, 2.5, 5, 10, 20, and 30 μM, to generate a dose–response curve. On the final day, cellular lysates were analyzed for luciferase and Renilla activities using the Dual-Luciferase Reporter Assay System (Promega, Madison, WI). pLuminescence was measured with a Glomax 20/20 luminometer (Promega, Madison, WI), and luciferase activities were normalized to Renilla activities.
(In general: In a reporter assay the amount or activity of a reporter protein is the signal.)

The target in a further experiment is T3, GPBAR1 (Homo sapiens, UniProt Q8TDU6).
T3 construct: expressed in transfected cells; host or cells: HEK293T
T3 sequence (Q8TDU6 1-330): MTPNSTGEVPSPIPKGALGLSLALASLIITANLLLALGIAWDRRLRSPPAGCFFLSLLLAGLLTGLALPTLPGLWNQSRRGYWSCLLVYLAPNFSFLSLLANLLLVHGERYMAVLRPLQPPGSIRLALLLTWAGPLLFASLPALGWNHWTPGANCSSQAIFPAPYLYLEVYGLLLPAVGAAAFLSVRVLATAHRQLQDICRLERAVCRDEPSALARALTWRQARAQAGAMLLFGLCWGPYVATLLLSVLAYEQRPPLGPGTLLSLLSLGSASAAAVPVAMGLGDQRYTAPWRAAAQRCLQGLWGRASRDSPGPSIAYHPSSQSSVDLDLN
In words: Luciferase reporter (transactivation) assay on HEK293T cells transfected with GPBAR1. The format is cell-based. The following applies: HEK-293T, relative to TLCA (10 μM) as 100%, mean ± SD, na = not active, read-out: GPBAR1 eff % (10 μM). Here is the method:
as §1, §2

Data on eleven compounds can be found in PMC12516728, “Harnessing the Estradienone Scaffold to Develop Dual GPBAR1 and LIFR Modulators for Liver Fibrosis” (Journal of Medicinal Chemistry, 2025).

Where two headings read alike, the source gives them in different places.

On to `C[C@]12C[C@H](c3ccc(-c4ccccc4)cc3)C3=C4CCC(=O)C=C4CC[C@H]3[C@@H]1CCC2=O` [Compound 1a], for which, in experiment [1], the IC50 came out at 1.42 ± 0.2 µM, the inhibition at 10 µM is 62.4 ± 9.2% and the inhibition at 50 µM amounted to 76.4 ± 4.1%. The inhibition at 10 µM at LIFR turned out to be 33.8 ± 3.7%. Moreover, the Emax at 10 µM on GPBAR1 turned out to be 44.8 ± 5.1%.
For `CN(C)c1ccc([C@H]2C[C@]3(C)C(=O)CC[C@H]3[C@@H]3CCC4=CC(=O)CCC4=C32)cc1` [Compound 1b], in that order: 0.535 ± 0.209 µM, 60 ± 14.7%, 84.3 ± 1.4%, 104 ± 2.5% and 21.7 ± 0.3%.
Regarding `C[C@]12C[C@H](c3ccccc3)C3=C4CCC(=O)C=C4CC[C@H]3[C@@H]1CCC2=O` [Compound 1c, 11β-Phenylestra-4,9-dien-3,17-dione], in experiment [1], the IC50 amounted to 26.9 ± 3.12 µM, the inhibition at 10 µM amounted to 34.3 ± 11.2% and the inhibition at 50 µM was determined as 40.5 ± 4.18%. Also, the inhibition at 10 µM on LIFR came to 76.8 ± 6.7%. Also, the Emax at 10 µM on GPBAR1 came out at 35 ± 1.5%.
Consider `COc1ccc(C[C@H]2C[C@]3(C)C(=O)CC[C@H]3[C@@H]3CCC4=CC(=O)CCC4=C23)cc1` [Compound 1d, 11β-(4-Methoxybenzyl)estra-4,9-dien-3,17-dione], for which, in experiment [1], the IC50 came out at 43.1 ± 4.6 µM, the inhibition at 10 µM came out at 26.5 ± 6.2% and the inhibition at 50 µM amounted to 41.1 ± 8%. Further, the inhibition at 10 µM on LIFR was 92 ± 7%.
For the compound `C[C@]12C[C@H](Cc3ccc(O)cc3)C3=C4CCC(=O)C=C4CC[C@H]3[C@@H]1CCC2=O` [Compound 1e, 11β-(4-Hydroxybenzyl)estra-4,9-dien-3,17-dione], in experiment [1], the IC50 turned out to be 45.6 ± 10.5 µM, the inhibition at 10 µM came to 29.3 ± 6.7% and the inhibition at 50 µM turned out to be 35.1 ± 13%. Also, on LIFR, the inhibition at 10 µM is 29.1 ± 1.4%. In addition, the Emax at 10 µM at GPBAR1 was found to be 9 ± 4%.
Turning to `C[C@]12C[C@H](c3ccc(I)cc3)C3=C4CCC(=O)C=C4CC[C@H]3[C@@H]1CCC2=O` [Compound 1f, 11β-(4-Iodophenyl)estra-4,9-dien-3,17-dione], in experiment [1], the concentration for half-maximal inhibition (IC50) turned out to be 9.78 ± 1.75 µM, the inhibition at 10 µM is 45.4 ± 1.3% and the inhibition at 50 µM was found to be 61.3 ± 7.5%. At LIFR, the inhibition at 10 µM was found to be 89.9 ± 1.2%.
In the case of `C[C@]12C[C@H](c3ccc(C4CC4)cc3)C3=C4CCC(=O)C=C4CC[C@H]3[C@@H]1CCC2=O` [Compound 1g, 11β-(4-Cyclopropylphenyl)-estra-4,9-dien-3,17-dione], in experiment [1], the IC50 was 9.42 ± 2.32 µM, the inhibition at 10 µM stood at 45.1 ± 1.9% and the inhibition at 50 µM came out at 62.1 ± 6.1%. The inhibition at 10 µM on LIFR stood at 51.1 ± 1.4%. In addition, the Emax at 10 µM at GPBAR1 is 16.5 ± 1.5%.
On to `C[C@]12C[C@H](c3ccc(-c4ccc(Br)nc4)cc3)C3=C4CCC(=O)C=C4CC[C@H]3[C@@H]1CCC2=O` [Compound 2d], for which, in experiment [1], the IC50 worked out at 5.54 ± 1.39 µM, the inhibition at 10 µM amounted to 42.1 ± 2.3% and the inhibition at 50 µM came out at 64.4 ± 7.5%. Also, the inhibition at 10 µM on LIFR was found to be 88.8 ± 3.4%.
Take `COC(=O)c1cccc(-c2ccc([C@H]3C[C@]4(C)C(=O)CC[C@H]4[C@@H]4CCC5=CC(=O)CCC5=C43)cc2)c1` [Compound 2s]: in experiment [1], the half-inhibitory concentration (IC50) was 0.159 ± 0.06 µM, the inhibition at 10 µM amounted to 63.6 ± 4.1% and the inhibition at 50 µM turned out to be 74.3 ± 14.1%. Further, at LIFR, the inhibition at 10 µM turned out to be 80.8 ± 0.9%. Further, at GPBAR1, the Emax at 10 µM was over 50%.
On the same counts, the results for `C[C@]12C[C@H](c3ccc(-c4cccc(C(=O)O)c4)cc3)C3=C4CCC(=O)C=C4CC[C@H]3[C@@H]1CCC2=O` [Compound 2t] are 24.8 ± 2.8 µM, 22.8 ± 5.1%, 62.3 ± 7.3%, 38.7 ± 0.6% and 20.4 ± 1.4%.
Regarding `CC#C[C@]1(O)CC[C@H]2[C@@H]3CCC4=CC(=O)CCC4=C3[C@@H](c3ccc(N(C)C)cc3)C[C@@]21C` [Mifepristone, mifepristone, reference compound], the inhibition at 10 µM in experiment [1] (10 μM, LIF-LIFR signal without compound set as 100% interaction, mean ± SD) is 70.5 ± 3.7%. Also, in experiment [1] (50 μM, LIF-LIFR signal without compound set as 100% interaction, mean ± SD), the inhibition at 50 µM came to 94.6 ± 7.3%. In experiment [1] (inhibition of LIF-LIFR interaction, ± SD, read-out: IC50), the IC50 stood at 0.366 ± 0.063 µM.

Broadly, the IC50 is the concentration that gives 50% inhibition. In general, inhibition refers to the drop in the measured response relative to a control, in per cent.
